The values below come from patent US20110263647A1 (AMGEN INC., priority 2009, published 2011).

For one series, the system named is U87MG tumors. The experiment in a line: U87MG xenograft tumor growth model. The format is in vivo, Athymic nude mice. The following applies: oral 10, 30, 60 and 100 mg/kg/day; 13 days (Example 2), 10 days and 17 days (Example 18). On the procedure:
The effect of PKB inhibition on tumor growth in vivo was assessed in an established U87MG xenograft model for Examples 2 and 18. Athymic nude mice bearing U87MG tumors (approximately 200 mm^3) in the right flank were treated with the compound orally at the dosage of 10, 30, 60, and 100 mg/kg/day (n=10) for 13 days (Example 2) and for 10 days and 17 days (Example 18). Tumor volume and body weight were measured twice per week. Data were expressed as means plus or minus standard errors and plotted as a function of time. Statistical significance of the effect was evaluated by Repeated Measures Analysis of Variance (RMANOVA) followed by Scheffe post hoc testing for multiple comparisons.

Another series deals with T1, CYP2D6 (Homo sapiens, UniProt P10635).
T1 construct: tissue XenoTech LLC Lot 0610351; host or cells: pooled human liver microsomes
The series can be described thus: CYP2D6 inhibition assay (bufuralol, pooled human liver microsomes). The format is in vitro ADME. The following applies: pH 7.4, probe bufuralol (5 μM), test compound 3 μM, human liver microsomes 0.25 mg/mL. As for the experimental part: (§1) Midazolam was obtained from BD Gentest (Waltham, Mass.); 1′ hydroxy midazolam and 1-hydroxy bufuralol maleate were obtained from Ultrafine Chemicals (Manchester, UK); bufuralol HCl, ketoconazole, quinidine, potassium phosphate, and NADPH were obtained from Sigma (St. Louis, Mo.). Test compounds were prepared at 10 mM concentration in DMSO (Mallinckrodt Inc., St. Louis, Mo.). NADPH was prepared at 10 mM concentration in a pH 7.4 buffer (8.3 mg/mL 66.7 mM potassium phosphate). Midazolam was prepared at 1 mM concentration in deionized water (Amgen, Thousand Oaks, Calif.), and bufuralol was prepared at 2 mM concentration in deionized water. A stock solution of ketoconazole was prepared at 37 mM concentration in DMSO, and quinidine was prepared at 500 uM concentration in DMSO. Formic acid in acetonitrile (0.05%, ACN) was used as a quench solution (Sigma-Aldrich, St. Louis, Mo.). All solvents used for LC/MS were of chromatographic grade. Pooled human liver microsomes (Lot 0610351) were purchased from XenoTech LLC, (Lenexa, Kans.).
Pooled human liver microsomes (0.25 mg/mL) were incubated at 37° C. in a phosphate buffer (66.7 mM potassium phosphate at pH 7.4) with the selective CYP2D6 substrate bufuralol at a concentration of 5 μM in the presence and absence of test compound (3 μM). The reaction was started with the addition of NADPH (1 mM final concentration). The reaction was stopped after 10 minutes by addition of formic acid in acetonitrile. 1-Hydroxybufuralol metabolite formation was measured by an HPLC MS detection method (mobile phases for HPLC were: 0.1% AcOH in 5% MeOH, and 0.1% AcOH in 95% MeOH; the HPLC column was an Onyx Monolithic C18 CHO-7645 HPLC column from Phenomenex; Shimadzu LC-10ADVP equipped Biomek FX Liquid handling system and CTC Analytics PAL well auto-sampler; Mass spectrometer: Applied Biosystems API 3000 using Analyst 1.4.1 software). Inhibition was determined by the ratio of the amount of 1-hydroxy bufuralol metabolite formed metabolite in the presence of test compound to the amount of metabolite in the absence of test compound.

Another series deals with T2, CYP3A4 (Homo sapiens, UniProt P08684).
T2 construct: tissue XenoTech LLC Lot 0610351; host or cells: pooled human liver microsomes
The series can be described thus: CYP3A4 inhibition assay (midazolam, pooled human liver microsomes). Type of series: in vitro ADME. To be noted: pH 7.4, probe midazolam (2.5 μM), test compound 3 μM, human liver microsomes 0.1 mg/mL. As for the experimental part:
as §1
Pooled human liver microsomes (0.1 mg/mL) were incubated at 37° C. in a phosphate buffer (66.7 mM potassium phosphate at pH 7.4) with the selective CYP3A substrate midazolam at a concentration of 2.5 μM in the presence and absence of test compound (3 μM). The reaction was started with the addition of NADPH (1 mM final concentration). The reaction was stopped after 10 minutes by addition of formic acid in acetonitrile. 1′-Hydroxymidazolam metabolite formation was measured by an HPLC MS detection method (mobile phases were 0.1% AcOH in 5% MeOH, and 0.1% AcOH in 95% MeOH; the HPLC column was an Onyx Monolithic C18 CHO-7645 HPLC column obtained from Phenomenex; Shimadzu LC-10ADVP equipped Biomek FX Liquid handling system and CTC Analytics PAL well auto-sampler; Mass spectrometer: Applied Biosystems API 3000 using Analyst 1.4.1 software). Inhibition was determined by the ratio of the amount of 1′-hydroxy midazolam metabolite formed in the presence of test compound to the amount of metabolite found in the absence of test compound Inhibition was measured relative to the rate of formation of 1′-hydroxy midazolam incubated at 2.5 μM without test compound.

Structures are written as SMILES. Counter-ions that a name gives are not always drawn.

T1 sequence (P10635 whole entry): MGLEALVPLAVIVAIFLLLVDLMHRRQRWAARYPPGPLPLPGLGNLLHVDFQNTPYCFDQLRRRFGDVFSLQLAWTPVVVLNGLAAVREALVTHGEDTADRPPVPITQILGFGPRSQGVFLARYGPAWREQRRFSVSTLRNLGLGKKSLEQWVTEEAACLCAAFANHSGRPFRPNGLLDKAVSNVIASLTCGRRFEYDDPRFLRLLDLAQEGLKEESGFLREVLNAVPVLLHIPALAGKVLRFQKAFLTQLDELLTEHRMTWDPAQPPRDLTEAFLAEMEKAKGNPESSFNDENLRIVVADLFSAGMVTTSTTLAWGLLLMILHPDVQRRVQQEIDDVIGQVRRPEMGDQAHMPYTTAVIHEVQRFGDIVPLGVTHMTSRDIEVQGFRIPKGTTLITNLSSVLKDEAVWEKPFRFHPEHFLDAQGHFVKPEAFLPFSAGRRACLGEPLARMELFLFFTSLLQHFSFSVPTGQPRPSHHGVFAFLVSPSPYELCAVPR
T2 sequence (P08684 whole entry): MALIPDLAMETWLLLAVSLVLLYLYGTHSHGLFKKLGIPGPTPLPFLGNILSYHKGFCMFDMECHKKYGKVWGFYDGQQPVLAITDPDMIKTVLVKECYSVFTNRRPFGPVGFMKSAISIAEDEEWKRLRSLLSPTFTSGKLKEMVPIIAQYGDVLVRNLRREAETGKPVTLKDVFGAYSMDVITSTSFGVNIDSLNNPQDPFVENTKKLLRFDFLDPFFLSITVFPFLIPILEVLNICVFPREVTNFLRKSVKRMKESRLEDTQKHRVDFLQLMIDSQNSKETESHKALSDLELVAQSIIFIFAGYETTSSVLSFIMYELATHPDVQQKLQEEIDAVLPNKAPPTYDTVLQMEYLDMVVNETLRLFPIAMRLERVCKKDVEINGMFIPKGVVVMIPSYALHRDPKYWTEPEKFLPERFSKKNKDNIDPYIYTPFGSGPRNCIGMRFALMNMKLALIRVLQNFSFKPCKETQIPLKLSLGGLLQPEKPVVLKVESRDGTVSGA

On to `N[C@H](CNc1ncc(-c2ccc3cnc(F)cc3c2)s1)Cc1ccc(C(F)(F)F)nc1` [Example 2, (2S)—N-(5-(3-Fluoro-6-isoquinolinyl)-1,3-thiazol-2-yl)-3-(6-(trifluoromethyl)-3-pyridinyl)-1,2-propanediamine], for which, in the series on U87MG tumors, the tumor growth inhibition result is reported as “Dose dependent tumor growth inhibition”. For the same molecule, the values for the inhibition at 10 min, 3 μM at CYP2D6 and on CYP3A4 were 53% and 75%, respectively.
As to `N[C@H](CNc1ncc(-c2ccc3cnc(F)cc3c2)s1)Cc1ccc(C(F)(F)F)cc1` [Example 4, N—((S)-2-Amino-3-(4-(trifluoromethyl)phenyl)propyl)-5-(3-fluoroisoquinolin-6-yl)thiazol-2-amine trifluoroacetate], the inhibition at 10 min, 3 μM was 44% on CYP2D6 and 0% against CYP3A4.
Turning to `CC(F)(F)c1ccc(C[C@H](N)CNc2ncc(-c3ccc4cnc(F)cc4c3)s2)cn1` [Example 7, N—((S)-2-Amino-3-(6-(1,1-difluoroethyl)pyridin-3-yl)propyl)-5-(3-fluoroisoquinolin-6-yl)thiazol-2-amine], the inhibition at 10 min, 3 μM on CYP2D6 is 23%; on CYP3A4 it was 13%.
As for `C[C@@H](c1ccc(C(F)(F)F)cc1)[C@H](N)CNc1ncc(-c2ccc3cnc(F)cc3c2)s1` [Example 10, N-((2S,3S)-2-Amino-3-(4-(trifluoromethyl)phenyl)butyl)-5-(3-fluoroisoquinolin-6-yl)thiazol-2-amine], the inhibition at 10 min, 3 μM at CYP2D6 was 19%; against CYP3A4, 0%.
In the case of `COCc1nc(NC[C@@H](N)Cc2ccc(C(F)(F)F)nc2)sc1-c1ccc2cnc(F)cc2c1` [Example 18, N—((S)-2-Amino-3-(6-(trifluoromethyl)pyridin-3-yl)propyl)-5-(3-fluoroisoquinolin-6-yl)-4-(methoxymethyl)thiazol-2-amine], the tumor growth inhibition entry with U87MG tumors is “Dose dependent tumor growth inhibition”. Further, the inhibition at 10 min, 3 μM against CYP2D6 turned out to be 75%; against CYP3A4, 0%.
Turning to `N[C@H](CNc1ncc(-c2ccc3cnc(F)cc3c2)s1)CN1CCC(C(F)(F)F)CC1` [Example 25, N—((R)-2-Amino-3-(4-(trifluoromethyl)piperidin-1-yl)propyl)-5-(3-fluoroisoquinolin-6-yl)thiazol-2-amine], the values for the inhibition at 10 min, 3 μM on CYP2D6 and on CYP3A4 were 51% and 48%, respectively.
On to `N[C@H](CNc1ncc(-c2ccc3cnc(F)cc3c2)s1)[C@@H](CO)c1ccc(C(F)(F)F)cc1` [Example 33, (2S,3S)-3-Amino-4-(5-(3-fluoroisoquinolin-6-yl)thiazol-2-ylamino)-2-(4-(trifluoromethyl)phenyl)butan-1-ol], for which the values for the inhibition at 10 min, 3 μM at CYP2D6 and on CYP3A4 were 49% and 48%, respectively.
`N[C@H](CCc1ncc(-c2ccc3cnc(F)cc3c2)s1)[C@@H](O)c1ccc(C(F)(F)F)cc1` [Example 36, (1S,2R)-2-Amino-4-(5-(3-fluoroisoquinolin-6-yl)thiazol-2-yl)-1-(4-(trifluoromethyl)phenyl)butan-1-ol trifluoroacetate]: the inhibition at 10 min, 3 μM is 27% against CYP2D6 and 0% against CYP3A4.
As to `CC(F)(F)c1ccc([C@H](O)[C@H](N)CNc2ncc(-c3ccc4cnc(F)cc4c3)s2)cc1` [Example 38, (1S,2R)-2-Amino-1-(4-(1,1-difluoroethyl)phenyl)-3-((5-(3-fluoro-6-isoquinolinyl)-1,3-thiazol-2-yl)amino)-1-propanol trifluoroacetate], the inhibition at 10 min, 3 μM on CYP2D6 was 44%; at CYP3A4 it was 9%.
Consider `N[C@H](CNc1ncc(-c2ccc3cnc(F)cc3c2)s1)Cc1ccc(Cl)c(F)c1` [Example 44, (2S)-3-(4-Chloro-3-fluorophenyl)-N-1-(5-(3-fluoro-6-isoquinoliny)-1,3-thiazol-2-yl)-1-2-propanediamine], for which the values for the inhibition at 10 min, 3 μM on CYP2D6 and at CYP3A4 were 42% and 48%, respectively.
With `CC(F)(F)c1ccc(C[C@H](N)CCc2ncc(-c3ccc4cnc(F)cc4c3)s2)cn1` [Example 50], the inhibition at 10 min, 3 μM turned out to be 71% against CYP2D6 and 21% at CYP3A4.

As a reminder, the inhibition is the relative decrease from the control value, in per cent. High values mean strong suppression, low ones little suppression.
